Key:
[1] = Metabolite profile of [14C] compound (I) in monkey hepatocyte incubations; type: in vitro ADME, cynomolgus monkey; settings: (Ia) 20 μM, 3 h, 37° C., ~2 million cells/mL; relative distribution in radiochromatographic profile
Description: (§1) The compound of formula (I) was used as the [^14C] compound (Ia) (30.4 μCi/mg, radiochemical purity 99.2%), as the monohydrate of the free base. The C-14 label was on the carbon in the 2-position of the thiazole ring.
(§2) Freshly isolated rat hepatocyte preparations were prepared from one male Sprague-Dawley rat. Rat Hepatocytes were prepared according to a standard procedure (Seglen, PO. Preparation of isolated rat liver cells. Methods Cell Biol., 1976, 13: 29-83). Cryopreserved cynomolgus monkey hepatocytes (male, pooled, n=6) and human hepatocytes (3 individual preparation) were purchased from In Vitro Technologies (Baltimore, Md.). Microsomes from male SD Rats (pooled, n=200, 20 mg/mL) and male cynomolgus monkeys (pooled, n=8, 20 mg/mL) were obtained from Xenotech LLC, Kansas City, Kans. Human liver microsomes (male, pooled, n=38) were from BD-Gentest, Woburn, Mass.
(§3) A 6 mM stock solution of the compound of formula (Ia) (the [^14C] of the compound of formula (I) was prepared at by dissolving 3.7 mg of the compound of formula (Ia) into 1:1 acetonitrile/DMSO. The 2 mM stock solution of the compound of formula (Ia) was obtained by diluting an aliquot of the 6 mM stock solution 3-fold with acetonitrile.
Human (3 vials from 3 individuals) and monkey cryopreserved hepatocytes were thawed according to the procedure provided by In Vitro Technologies. Briefly, the caps of the cryovials were loosened to release any trapped liquid nitrogen and kept on ice for 2 min. The caps were tightened and the vials were immersed in a 37° C. water bath for 75-90 sec with gentle shaking. The thawed samples (3 cryovials/[…] for each 50 mL tube) were transferred into 25 mL pre-warmed Krebs-Henseleit buffer in a 50 mL tube and gently inverted. The suspensions were evenly divided into 2 tubes and diluted to 40 mL with pre-warmed Krebs-Henseleit buffer. The tubes were centrifuged in an Eppendorf 5810R centrifuge (Hamburg, Germany) at 200 rpm at 4° C. for 10 min. The supernatant was discarded and the pellet gently suspended in 2 mL of Krebs-Henseleit buffer. All the tubes were combined into one tube, rinsing the empty tubes with 1 mL Krebs-Henseleit buffer. The cells were counted, checked for viability and diluted accordingly with modified Krebs-Henseleit buffer to give a final concentration of 2 million viable cells/mL.
(§4) Viability of the hepatocytes was checked using a Trypan Blue exclusion assay and a hemocytometer. A mixture of 0.1 mL of the hepatocyte suspension and 0.1 mL of trypan blue solution were diluted with 0.8 mL of Krebs-Henseleit buffer. The solution was gently mixed and plated onto a Levy hemocytometer (Hausser Scientific) and the viable cells (unstained) were counted under a light microscope. The viability of the hepatocytes ranged from 77% to 90% at the beginning of the incubations.
(§5) Hepatocyte incubations were conducted at 37° C. for 3 h in a NAPCO CO2 6000 incubator (VWR Scientific Products) under a 5% CO2 atmosphere using an orbital shaker at 90 rpm. For each incubation, the final concentration of compound (Ia) was 20 μM and the hepatocyte concentrations were ˜2 million cells/mL. A control incubation, in the absence of hepatocytes, was also performed for 3 h. The incubations were stopped by adding one volume of ice-cold acetonitrile. Each 0.5 mL incubation contained 0.1 M potassium phosphate buffer (pH 7.4), 2.5 mM MgCl2, 2 mg/mL microsomal protein, and 2.0 mM NADPH. The final substrate concentration was 20 μM. The mixtures were incubated in a shaking water bath at 37° C. for 15 min. Control incubations in the absence of microsomes or NADPH were performed for each species. The reactions were stopped with the addition of 1 mL of ice-cold acetonitrile.
HPLC was performed on a Waters Alliance™ system equipped with Waters 2695 pumps and a photodiode array detector (Waters 2996). A Phenomenex Synergy Polar-RP® column (4.6×250 mm, 5 micron) was used for metabolite separation. […]

[2] = Metabolite profile of [14C] compound (I) in rat hepatocyte incubations; type: in vitro ADME, Sprague-Dawley rat; settings: (Ia) 20 μM, 3 h, 37° C., ~2 million cells/mL; relative distribution in radiochromatographic profile
Description: as §1, §2, §3
Rat hepatocyte suspensions were provided at concentrations of 9.1 million cells/mL with a viability of 90%. The cell suspension was diluted accordingly with modified Krebs-Henseleit buffer to give a final concentration of 2 million cells/mL.
as §4, §5
HPLC was performed on a Waters Alliance™ system equipped with Waters 2695 pumps and a photodiode array detector (Waters 2996). A Phenomenex Synergy Polar-RP® column (4.6×250 mm, 5 micron) was used for metabolite separation. All HPLC analyses were performed at 1 mL/min flow rate at room temperature. Two HPLC mobile phase and gradient systems were used because all metabolites could not be completely separated on either of the individual HPLC systems. The first system consisted of (A) water with 0.1% formic acid and (B) acetonitrile with 0.1% formic acid as mobile phase. The linear gradient was as follows: 0 min, 20% B; 1 min, 20% B; 41 min, 35% B; 42 min, 90% B; 44 min, 90% B. The column was re-equilibrated at 20% B for 6 min before the next injection. The second HPLC system was used to separate certain co-eluting metabolites that could not be separated by the first system. The mobile phase consisted of (A) water with 0.1% triflouroacetic acid (TFA) and (B) acetonitrile with 0.1% TFA. The gradient was as follows: 0 min, 20% B; 1 min, 20% B; 51 min, 35% B; 52 min, 90% B; 54 min 90% B. The column was equilibrated at 20% B for 6 min prior to the next injection. […]

SMILES	% of Radioactivity in Hepatocytes, Monkey [1]	% of Radioactivity in Hepatocytes, Rat [2]
Cc1nc(Nc2ncc(C(=O)Nc3c(C)cccc3Cl)s2)cc(N2CC[N+]([O-])(CCO)CC2)n1 [M5 (III)]	3.2%	2.7%
Cc1nc(Nc2ncc(C(=O)Nc3c(C)cc(O)cc3Cl)s2)cc(N2CCN(CCO)CC2)n1 [M20 (V)]	4.5%	1.1%
Cc1nc(Nc2ncc(C(=O)Nc3c(Cl)cccc3CO)s2)cc(N2CCN(CCO)CC2)n1 [M24 (VI), N-(2-chloro-6-(hydroxymethyl)phenyl)-2-(6-(4-(2-hydroxyethyl)piperazin-1-yl)-2-methylpyrimidin-4-ylamino)thiazole-5-carboxamide]	4.5%	1.1%

Further lines, results first:

% of Radioactivity in Hepatocytes, Monkey [1]	% of Radioactivity in Hepatocytes, Rat [2]	SMILES
3.7%	1.6%	Cc1nc(Nc2ncc(C(=O)Nc3c(C)cccc3Cl)s2)cc(N2CCNCC2)n1 [M4 (II)]
6.5%	4.9%	Cc1nc(Nc2ncc(C(=O)Nc3c(C)cccc3Cl)s2)cc(N2CCN(CC(=O)O)CC2)n1 [M6 (IV), 2-(4-(6-(5-((2-Chloro-6-methylphenyl)carbamoyl)thiazol-2-ylamino)-2-methylpyrimidin-4-yl)piperazin-1-yl)acetic acid]
61.2%	88.8%	Cc1nc(Nc2ncc(C(=O)Nc3c(C)cccc3Cl)s2)cc(N2CCN(CCO)CC2)n1 [Parent (I), N-(2-Chloro-6-methylphenyl)-2-[[6-[4-(2-hydroxyethyl)-1-piperazinyl]-2-methyl-4-pyrimidinyl]amino]-5-thiazolecarboxamide]

Reference: patent publication US20060211705A1, “'N-(2-chloro-6-methylphenyl)-2-[[6-[4-(2-hydroxyethyl)-1-piperazinyl]-2-methyl-4-pyrimidinyl]amino]-5-thiazolecarboxamides metabolites” (priority 2005, published 2006)
